Assay results taken from patent US20260263618A1, “LIPID NANOPARTICLE FORMULATIONS AND COMPOSITIONS” (CAPSTAN THERAPEUTICS, INC., priority 2023, published 2026).

Tests used:
[1] = Time course of ionizable cationic lipid in plasma, spleen and liver of mice, LC-MS; format: in vivo; conditions: for plasma levels of lipid at 7 days: 2 mg/kg tLNP (F9 or BF1) targeted to mouse CD8, FIG. 13C
Procedure: To obtain more detailed data a similar experiment was conducted in mice where it was possible to obtain a time course of disappearance of the ionizable cationic lipid and the encapsulated mRNA as well. Mice were intravenously administered 2 mg/kg tLNP of composition BF1 (comprising ALC-0315) or F9 (comprising CICL1) targeted to mouse CD8 and encapsulating an anti-human CD19 CAR, and monitored through 7 days. At each timepoint, 3 mice were sacrificed, and liver, spleen, and plasma were processed for LC-MS-based detection of lipid concentration and digital PCR detection of the mRNA. In plasma, mRNA level was normalized to a known amount of mRNA spiked in a control. In spleen and liver mRNA level was normalized to mRNA for the housekeeping gene GAPDH.

[2] = Ionizable cationic lipid in plasma, liver and spleen of NHP 24 hours after tLNP, LC/MS/MS; format: in vivo, cynomolgus macaques
Procedure: Samples were taken from cynomolgus macaques that had been intravenously administered either BF1 or F5 tLNPs (two each) at a dosage of 3 mg mRNA/kg in the preceding example. The tLNPs were conjugated to anti-C05 mentioned in Example 2 as the targeting moiety. 24 hours after administration the animals were sacrificed and plasma, liver, and spleen tissue collected from two animals in each group and assessed by mass spectrometry for presence of these ionizable cationic lipids in order to assess biodegradability and biodistribution of these ionizable cationic lipids.
Briefly, plasma was stabilized for mass spectrometry by addition of 10 μL of formic acid per mL of K2EDTA plasma. Spleen and liver tissue were homogenized in 19 parts of homogenization buffer (50:40:10 0.1% formic acid in 1:1 methanol:acetone/10 mM ammonium formate with 0.2% formic acid/dimethylformamide (DMF)) to 1 part tissue (v/w) using a Geno/Grinder® (SPEX® SamplePrep) set to two minutes at 1500 rpms.
Calibration curves and quality control samples were prepared by spiking control matrix (plasma or homogenate) with CICL1 or ALC-0315 in DMF. The extraction was performed on wet ice by adding 300 μL of crashing solvent (0.1% formic acid in 1:1 methanol:acetonitrile) to 25 μL of sample to which 50 μL of internal standard was added (1:1 isopropyl alcohol:water). The extracts were mixed for four minutes at 1500 rpms and then centrifuged at 3000×g for ten minutes. 200 μL of supernatant was transferred to a clean 96 well plate for LC/MS/MS analysis.
Chromatography was performed on a Waters XBridge BEH C8 column (130 Å, 2.5 μm, 2.1×30 mm) using the following gradient. Mobile phase A (10 mM ammonium format in water with 0.2% formic acid) was held at 20% for 0.3 minutes before being reduced to 5% over […]. This condition was held for one minute before being returned to 80% B (0.1% formic acid in 1:1 methanol:acetonitrile) in 0.1 minutes. The column was then held at 80% B for 1.4 minutes. LC flow rate was held at 0.5 mL/min and the autosampler held at 2-8° C. The mass spectrum was obtained with a triple quadrupole apparatus using atmospheric pressure ionization (Sciex).
Quantitation was performed using a 1/X2 quadratic regression using the peak area for transition 1013.6→968A (CICL1) or 766.6-748.4 (ALC-0315) over peak area of transition 1040.6→995.4 of the internal standard.

[3] = Tolerability in non-human primates: liver enzymes ALT and AST; format: in vivo; conditions: ionizable cationic lipid in F9 tLNP, second NHP study
Procedure: A second study was conducted with F9 tLNP to evaluate the tolerability and engineering efficiency of (1) a single administration of a CD5-targeted tLNP (humanized 5D7 targeting antibody) with an mRNA payload encoding an anti-CD19 CAR, (2) a single administration of a CD8-targeted tLNP (chimeric RPA-T8 targeting antibody) with an mRNA payload also encoding the anti-CD19 CAR, and (3) repeat administration (3 doses) of the CD5-targeted tLNP. The CD5-targeted tLNP was administered as a single dose at 3.0 mg/kg (Group 2, n=2) or as a repeat dose of 1.0 mg/kg at 72-hour intervals (Q72h) for three doses (Group 5, n=2). […] As a control, PBS was administered (Group 1, n=1). All tLNP tested in the second study utilized composition F9. […] Clinical observations, clinical pathology, and toxicology biomarkers were evaluated to assess safety and tolerability. Pharmacological assessment was carried out by flow cytometry detection of anti-CD19 CAR in immune cell subsets in peripheral blood and tissues (spleen, bone marrow, lymph node, and liver).
A third study in NHP with F9 tLNP targeted to C08 and encapsulating an mRNA encoding an anti-CD19 CAR was also conducted and the single dose liver enzyme results of all three studies (doses ranging from 3.5 to 3.0 mg mRNA/kg) compiled into single plots of AST and ALT levels for a more global assessment (FIG. 12K).

[4] = target: signal regulatory protein α (SIRPα) (Homo sapiens, UniProt P78324); conditions: cited from earlier work
signal regulatory protein α (SIRPα), sequence (P78324 31-504): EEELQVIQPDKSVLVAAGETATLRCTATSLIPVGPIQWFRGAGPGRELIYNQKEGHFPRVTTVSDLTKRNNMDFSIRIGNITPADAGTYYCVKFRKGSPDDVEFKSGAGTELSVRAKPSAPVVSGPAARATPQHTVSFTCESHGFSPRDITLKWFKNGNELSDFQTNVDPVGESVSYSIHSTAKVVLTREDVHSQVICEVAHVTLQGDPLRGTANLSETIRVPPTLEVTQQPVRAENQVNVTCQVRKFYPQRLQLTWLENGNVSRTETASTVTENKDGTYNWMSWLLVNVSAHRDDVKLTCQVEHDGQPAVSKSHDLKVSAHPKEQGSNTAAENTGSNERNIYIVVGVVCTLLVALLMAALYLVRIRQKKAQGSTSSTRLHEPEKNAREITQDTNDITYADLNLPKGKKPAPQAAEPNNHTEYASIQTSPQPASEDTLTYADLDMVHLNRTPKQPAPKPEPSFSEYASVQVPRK

Row | lipid levels in spleen and liver throughout the 7 days ([1]; FIGS. 13D-E) | concentration remaining in blood, fold greater (than CICL1) ([2]; 24 hours after 3 mg mRNA/kg tLNP, FIG. 13B) | Molecule | plasma levels of lipid at 7 days [1] | tolerability [3] | time after administration by which levels were falling in the spleen ([1]; FIG. 13D) | time after administration by which levels were falling in the liver ([1]; FIG. 13E) | concentrations in blood, liver, and spleen relative to each other ([2]; 24 hours) | spleen concentration, fold less than for ALC-0315 ([2]; 24 hours) | amount of lipid present in blood, liver, and spleen ([2]; 24 hours after 3 mg mRNA/kg tLNP) | biodegradability compared with ALC-0315 ([2]; clearance data) | binding affinity to SIRPα, fold stronger than full-length CD47 protein [4]
1 | remained almost unchanged | about 6 fold | CCCCCCCCC(CCCCCC)C(=O)OCCCCCCN(CCCCO)CCCCCCOC(=O)C(CCCCCC)CCCCCCCC (stereo not drawn) [ALC-0315, [(4-Hydroxybutyl)azanediyl)di(hexane-6,1-diyl) bis(2-hexyldecanoate), reference compound] | still detected | – | – | – | – | – | – | – | –
2 | – | – | CCCCCCCCC(=O)OCC(COC(=O)CCCCCCCC)CC(=O)OCCN(CCOC(=O)CC(COC(=O)CCCCCCCC)COC(=O)CCCCCCCC)C(=O)OCCN(C)C [CICL1] | returned to baseline | well tolerated | ≤ 1 h | ≤ 2 h | ≤ 2 fold | ~35 fold | only very small amounts | much more biodegradable | –
3 | – | – | NYTCEVTELSREGKTVIELK (SEQ ID NO: 3) [CD47 peptide] | – | – | – | – | – | – | – | – | 10 fold
